The text below walks through data of ChEMBL document CHEMBL4385632, “Synthesis of novel benzothiazole amides: Evaluation of PPAR activity and anti-proliferative effects in paraganglioma, pancreatic and colorectal cancer cell lines” (2019).

The structures appear in SMILES notation. Active and inactive are the calls of the source. The calls are words filed in the database; no cut-off is given here. Bounds are passed on as bounds.

The target of test [1] is T1, Peroxisome proliferator-activated receptor gamma (Homo sapiens) (UniProt P37231).
T1 sequence (whole entry): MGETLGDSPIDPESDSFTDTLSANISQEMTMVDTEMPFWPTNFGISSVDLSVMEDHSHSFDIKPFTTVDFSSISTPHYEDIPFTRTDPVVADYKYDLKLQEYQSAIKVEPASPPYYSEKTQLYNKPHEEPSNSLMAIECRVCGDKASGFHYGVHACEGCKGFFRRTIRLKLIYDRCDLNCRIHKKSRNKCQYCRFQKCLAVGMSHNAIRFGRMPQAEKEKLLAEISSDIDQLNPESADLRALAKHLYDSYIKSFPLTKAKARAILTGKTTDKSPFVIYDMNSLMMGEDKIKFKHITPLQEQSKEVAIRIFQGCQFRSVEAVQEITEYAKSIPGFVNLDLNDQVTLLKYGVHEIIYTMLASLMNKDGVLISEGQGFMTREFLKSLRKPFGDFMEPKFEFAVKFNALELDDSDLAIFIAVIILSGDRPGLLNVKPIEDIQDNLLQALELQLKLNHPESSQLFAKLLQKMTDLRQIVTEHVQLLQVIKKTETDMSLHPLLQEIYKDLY
Nature of the test: Antagonist activity at GAL4-tagged human PPARgamma LBD expressed in human HepG2 cells assessed as inhibition of rosiglitazone-induced receptor transactivation at 25 uM incubated for 20 hrs by luciferase reporter gene assay relative to control. The test is classed as cell-based. (In general: A reporter such as luciferase makes a cellular process visible.)

A short description of test [2]: (§1) Cytotoxicity against human PTJ86i cells assessed as reduction in cell viability at 75 uM incubated for 72 hrs by MTT assay. The test is classed as functional.
The subject of a further test is HT-29. As to the kind of experiment: Cytotoxicity against human HT-29 cells assessed as reduction in cell viability at 75 uM incubated for 72 hrs by MTT assay. The test is classed as functional. Particulars: for inhibition at 75 µM: HT-29, 72 h. (In general: Tetrazolium dyes change colour on reduction, which living cells bring about.)
The target in test [3] is T2, Peroxisome proliferator-activated receptor delta (Homo sapiens) (UniProt Q03181).
T2 sequence (whole entry): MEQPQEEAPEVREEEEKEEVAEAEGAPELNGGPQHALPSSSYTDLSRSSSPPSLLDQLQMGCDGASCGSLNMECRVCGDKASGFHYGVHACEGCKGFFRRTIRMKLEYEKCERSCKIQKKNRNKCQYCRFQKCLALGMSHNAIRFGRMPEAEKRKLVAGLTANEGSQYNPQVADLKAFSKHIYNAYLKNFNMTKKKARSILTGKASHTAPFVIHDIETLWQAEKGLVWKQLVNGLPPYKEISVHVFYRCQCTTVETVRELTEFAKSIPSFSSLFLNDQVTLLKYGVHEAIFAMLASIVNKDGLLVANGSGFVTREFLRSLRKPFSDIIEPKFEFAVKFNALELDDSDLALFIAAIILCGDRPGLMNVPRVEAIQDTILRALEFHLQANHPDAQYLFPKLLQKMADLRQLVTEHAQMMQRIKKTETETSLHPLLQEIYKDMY
Nature of the test: Antagonist activity at GAL4-tagged human PPARdelta LBD expressed in human HepG2 cells assessed as inhibition of L-165,041-induced receptor transactivation at 25 uM incubated for 20 hrs by luciferase reporter gene assay relative to control. The test is classed as cell-based.

Another test deals with ASPC1. Nature of the test: Cytotoxicity against human AsPC1 cells assessed as reduction in cell viability at 75 uM incubated for 72 hrs by MTT assay. The test is classed as functional. To be noted: for inhibition at 75 µM: ASPC1, 72 h.
The test system of the next test is Capan-2. Nature of the test: Cytotoxicity against human Capan2 cells assessed as reduction in cell viability at 75 uM incubated for 72 hrs by MTT assay. The test is classed as functional. To be noted: for inhibition at 75 µM: Capan-2, 72 h.
In test [4] the target is T3, Peroxisome proliferator-activated receptor alpha (Homo sapiens) (UniProt Q07869).
T3 sequence (whole entry): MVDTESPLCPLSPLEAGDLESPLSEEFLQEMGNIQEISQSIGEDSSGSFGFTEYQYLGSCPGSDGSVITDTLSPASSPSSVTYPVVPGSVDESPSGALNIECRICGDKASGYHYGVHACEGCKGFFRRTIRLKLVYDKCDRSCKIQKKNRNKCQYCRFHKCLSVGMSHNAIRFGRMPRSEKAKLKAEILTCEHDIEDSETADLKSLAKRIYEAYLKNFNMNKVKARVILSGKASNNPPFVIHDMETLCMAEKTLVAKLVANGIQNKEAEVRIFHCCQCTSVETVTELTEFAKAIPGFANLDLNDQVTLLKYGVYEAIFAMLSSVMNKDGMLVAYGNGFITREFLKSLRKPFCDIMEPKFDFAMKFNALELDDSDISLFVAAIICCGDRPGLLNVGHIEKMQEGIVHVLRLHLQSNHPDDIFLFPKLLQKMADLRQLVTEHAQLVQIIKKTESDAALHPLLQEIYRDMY
As to the kind of experiment: Antagonist activity at GAL4-tagged human PPARalpha LBD expressed in human HepG2 cells assessed as inhibition of Wy14,643-induced receptor transactivation at 25 uM incubated for 20 hrs by luciferase reporter gene assay relative to control. The test is classed as cell-based.

Test [5] in a line: (§2) Cytotoxicity against human PTJ64i cells assessed as reduction in cell viability at 75 uM incubated for 72 hrs by MTT assay. The test is classed as functional.
Another test deals with SW480. Nature of the test: Cytotoxicity against human SW480 cells assessed as reduction in cell viability at 75 uM incubated for 72 hrs by MTT assay. The test is classed as functional. To be noted: for inhibition at 75 µM: SW480, 72 h.
Test [6] in a line: Inhibition of colony formation in human PTJ64i cells assessed as surviving fraction at 24 uM incubated for 13 days by crystal violet staining based assay (Rvb=100%). The test is classed as functional. Particulars: 312 h, read-out: Survival.
Test [7] is filed under the species Homo sapiens. As to the kind of experiment: Cytotoxicity against human PTJ86i cells assessed as reduction in cell viability incubated for 72 hrs by MTT assay. The test is classed as functional, cell-based.
Test [8] in a line: Inhibition of colony formation in human PTJ86i cells assessed as surviving fraction at 24 uM incubated for 13 days by crystal violet staining based assay (Rvb=100%). The test is classed as functional. To be noted: 312 h, read-out: Survival.
The species entered for test [9] is Homo sapiens. Nature of the test: Cytotoxicity against human PTJ64i cells assessed as reduction in cell viability incubated for 72 hrs by MTT assay. The test is classed as functional, cell-based.
Test [10] can be described thus: Inhibition of colony formation in human PTJ64i cells assessed as plating efficiency at 24 uM incubated for 13 days by crystal violet staining based assay (Rvb=10.75%). The test is classed as functional. More on the design: scale not given: the % may be the effect or the level left.
The nature of test [11]: Inhibition of colony formation in human PTJ86i cells assessed as plating efficiency at 24 uM incubated for 13 days by crystal violet staining based assay (Rvb=30.25%). Also on record: scale not given: the % may be the effect or the level left. The test is classed as functional.
The species entered for test [12] is Homo sapiens. The description is as §1. The test is classed as functional.
The species entered for test [13] is Homo sapiens. The description is as §2. The test is classed as functional.

In general, inhibition refers to the change of the read-out against control, counted positive when it falls. For `O=C(NCCc1ccccc1)C(Sc1nc2cc(Cl)ccc2s1)c1ccccc1` (stereo not given), the %max is less than 2% in [1], less than 2% in [3] and 57% in test [4]. Further, the inhibition at 75 µM is no less than 50% in [2]; no more than 50% in the test with HT-29; no more than 74% in the test on ASPC1; no more than 74% in the test with Capan-2; no less than 50% in test [5]; no more than 50% in the test on SW480.

As for `O=C(NCCCc1ccccc1)C(Sc1nc2cc(Cl)ccc2s1)c1ccccc1` (stereo not given), the results for the %max in test [1], in test [3] and in test [4] were less than 2%, less than 2% and 46%, respectively. Besides, the inhibition at 75 µM in test [2] was no less than 50%; with HT-29, no more than 63%; with ASPC1, no more than 50%; with Capan-2, no more than 50%; in test [5] it was no less than 50%; in the test on SW480 it was no more than 63%.

Regarding `O=C(Nc1ccccc1)C(Sc1nc2cc(Cl)ccc2s1)c1ccccc1` (stereo not given), the viability at 24 µM is 23.3% in [6] and 18.2% in [8]. Also, the %max in test [1] is less than 2%; in test [3], less than 2%; in test [4], 22%. Also, the inhibition at 75 µM in [2] was greater than 90%; in the test on HT-29 it was no more than 68%; with ASPC1 it was no more than 75%; in the test on Capan-2, no more than 75%; in [5] it was greater than 90%; with SW480, no more than 68%. In addition, the inhibition result in the test filed under Homo sapiens [7] and in the test listed under Homo sapiens [9] was “Dose-dependent effect” each time. In addition, the results for the Activity in [10] and in test [11] were 2.5% and 5.5%, respectively.

Regarding `O=C(NCc1ccccc1)C(Sc1nc2cc(Cl)ccc2s1)c1ccccc1` (stereo not given), the %max was less than 2% in test [1], less than 2% in [3] and 35% in test [4]. Moreover, the inhibition at 75 µM in test [2] was no less than 50%; with HT-29, no more than 50%; in the test on ASPC1, no more than 50%; with Capan-2, no more than 50%; in test [5] it was no less than 50%; in the test with SW480, no more than 50%.

With `CC(=O)Nc1ccc(NC(=O)C(Sc2nc3cc(Cl)ccc3s2)c2ccccc2)cc1` (stereo not given), the %max in test [1] is less than 2%; in test [3], less than 2%; in [4], 22%. Moreover, the inhibition at 75 µM was no less than 50% in test [2]; no more than 50% with HT-29; no more than 50% with ASPC1; no more than 50% in the test with Capan-2; no less than 50% in test [5]; no more than 50% in the test on SW480.

Turning to `CCC(=O)NC[C@H](Cc1ccc(OCCc2nc(-c3ccccc3)oc2C)cc1)N/C(C)=C\C(=O)c1ccc(C(F)(F)F)cc1`, the inhibition entry in the test listed under Homo sapiens [12], in the test on HT-29, with ASPC1, in the test with Capan-2, in the test filed under Homo sapiens [13] and with SW480 was “Active” each time.

As for `CC(NC(=O)C(Sc1nc2cc(Cl)ccc2s1)c1ccccc1)c1ccccc1` (stereo not given), the %max was less than 2% in test [1], less than 2% in test [3] and 45% in test [4]. Besides, the inhibition at 75 µM in test [2] was no less than 50%; with HT-29, no more than 50%; in the test with ASPC1, no more than 50%; in the test on Capan-2, no more than 50%; in test [5], no less than 50%; with SW480, 60%.

Turning to `CCCCNC(=O)C(Sc1nc2cc(Cl)ccc2s1)c1ccccc1` (stereo not given), the %max in test [1] is less than 2%; in test [3], less than 2%; in test [4] it was 31%. Moreover, the inhibition at 75 µM was no less than 50% in test [2]; no more than 50% with HT-29; no more than 50% in the test with ASPC1; no more than 50% with Capan-2; no less than 50% in test [5]; no more than 50% in the test on SW480.
